Test [1] concerns spliced XBP-1 mRNA, 293T cells. Briefly: Real-time qRT-PCR for spliced XBP-1 mRNA. It counts as cell-based, human. The protocol: (§1) Fold induction is calculated with respect to the control non-infected/non-treated cells. […] Blot is also probed with Gluc antibody as well as alpha-tubulin antibody for equal loading. […] The mean±S.E.M. is presented on the graphs (n=3), with *p<0.01 as compared to the non-treated cells and as calculated by the student's t-Test. NS=not significant
ER stress: total RNA isolation, reverse transcription and real-time qPCR. 293T cells were plated at 1×10^6 cells/mL in a 12-well plate. Cells were treated with different concentrations of DTT (Sigma) for 4 h. Total RNA was isolated using the RNeasy mini kit (Quiagen, Valencia, Calif.) and concentration was determined by measuring the OD260 using a spectrophotometer (Bio-Rad, Hercules, Calif.). Reverse transcription was performed on 200 ng RNA (in 10 μl) at 37° C. for 60 min using an Omniscript reverse transcription kit (Quiagen). Two μL of each cDNA sample were used for real-time PCR. Biological triplicates were measured twice. The following primers were used: Forward 5′-[…]-3′ (SEQ ID NO: 10) and Reverse 5′-[…]-3′ (SEQ ID NO: 11). These primers were designed to span a 26 bp intron in the unspliced XBP1 mRNA [12]. […] The fold increase was calculated based on Ct values of treated cells relative to control non-infected and non-treated cells normalized to the values for GAPDH endogenous control.
A general note: Quantitative PCR measures a nucleic acid by following its amplification.

Another test concerns BiP, 293T cells. The test is described as follows: Western blot for BiP. The format is cell-based, human. Particulars: DTT 0.03-2 mM, 24 h, dose dependent. The protocol:
as §1
Western blot. Total cell lysates were prepared in lysis buffer containing 150 mM NaCl, 50 mM TRIS, pH 8.0, 1% NP-40, 0.5% deoxycholate, 0.1% SDS, and protease inhibitors (PI Complete; Boehringer Mannheim, Indianapolis, Ind.). Forty μg protein were electrophoresed in 12.5% SDS-polyacrylamide gels, and transferred to nitrocellulose membranes (Bio-Rad). […] Membranes were then incubated with horseradish peroxidase (HRP) conjugated to secondary antibodies: sheep anti-mouse IgG-HRP (1:10,000) or donkey anti-rabbit IgG-HRP (1:10,000) (Amersham Pharmacia Biotech, Piscataway, N.J.). For protein detection we used SuperSignal West Pico Chemiluminescent Substrate™ (Pierce, Rockford, Ill.).
For orientation: A western blot detects proteins with antibodies after separation by electrophoresis.

For test [2], the system named is ER stress (Gluc secretion), 293T cells. The test is described as follows: Real-time monitoring of ER stress with Gluc (Gluc activity in conditioned medium). It counts as cell-based, human. The procedure:
Fold induction is calculated with respect to the control non-infected/non-treated cells. […] The mean±S.E.M. is presented on the graphs (n=3), with *p<0.01 as compared to the non-treated cells and as calculated by the student's t-Test. NS=not significant
Gaussia luciferase for monitoring of ER stress in real-time. Splicing of the XBP-1 mRNA to sXBP1 and expression of BiP protein are generally used as biomarkers for ER stress.

Test [3] has as its system secretory pathway (Gluc secretion), 293T cells. The test is described as follows: Blocking of secretory pathway: Gluc activity in conditioned medium of drug-treated cells. It counts as cell-based, human. The following applies: 24 h, 5 μg/ml BFA, 3 μg/ml monensin A, 10 μg/ml nocodazole, 5 μg/ml cytochalasin B. The protocol:
Cells were treated for 24 h with different drugs which interfere with the secretory pathway. […] Scale bar, 10 μm. Luciferase activity. […] For Fluc detection, 450 μM Beetle D-luciferin (Molecular Imaging Products, Ann Arbor, Mich.) was added directly to the viable cells, in a 96 well plate and measured as above. The signal was measured for 10 sec and integrated over 2 sec in both cases. Blocking of secretory pathway.

The subject of test [4] is secretory pathway (Gluc-YFP secretion). Briefly: Gluc-YFP fusion: secretion and localization after BFA or nocodazole. The format is cell-based, human. Particulars: for secretion of Gluc-YFP luciferase activity: cells expressing Gluc-YFP, conditioned medium 24 h after treatment. The protocol:
Blocking of secretory pathway. […] Forty-eight h post-infection, cells were treated with either 5 μg/ml BFA, 3 μg/ml monensin A (MonA), 10 μg/ml nocodazole (Noc) or 5 μg/ml cytochalasin B (CytB) all obtained from Sigma.

The subject of test [5] is secretory pathway (Gluc secretion). Briefly: Bioluminescence from media of Gluc expressing cells treated with secretory pathway inhibitors (FIG. 11). The format is cell-based. The text has this:
Nocodazone disrupts microtubule function and BrefeldinA disrupts golgi function.
This confirms Gluc is being secreted the secretory pathway.

For test [6], the system named is unfolded protein response (GRP78). The test is described as follows: Immunoblotting for GRP78, unfolded protein response (FIG. 12). It counts as cell-based. Particulars: cells treated with tunicamycin.
Experimental: Immunobloting for GRP76 of protein lysates from cells not expressing Gluc in the absence (untreated) or presence of tunicamycin, an agent which upregulates the UPR, compared with untreated cells expressing the Gluc-YFP conjugate protein.
To assess the effect of Gluc expression on cell physiology and to ask if Gluc expression triggers an ER stress response and/or induces the unfolded protein response (UPR), cells were treated with tunicamycin, an agent which upregulates the UPR in the presence or absence of Gluc expression.

As to `O[C@H](CS)[C@H](O)CS` (racemic) [DTT, dithiothreitol], the “extent of XBP-1 mRNA splicing” value in test [1] (DTT 0.03-2 mM, 4 h, dose dependent) was “increased”. Moreover, the “amount of BiP” value in the test with BiP, 293T cells is on record as “increased”. Moreover, the “Gluc secretion in the conditioned medium over time” value in test [2] (1 mM DTT, real-time monitoring, started to recover after 4 h, normal level after 24 h) is given as “complete inhibition of secretion for the first 3 h”. Besides, in test [2] (DTT 0.03-2 mM, 4 h), the “secretion of Gluc” value is on record as “decrease”.
Turning to `C[C@H]1CCC/C=C/[C@@H]2C[C@H](O)C[C@H]2[C@H](O)/C=C/C(=O)O1` [BFA, brefeldinA], in test [3], the “decrease of Gluc secretion into the conditioned medium” value is on record as “about 90%”. Further, the “secretion of Gluc-YFP luciferase activity” value in test [4] is reported as “blocked to the same extent as for Gluc”. The “localization of Gluc-YFP fusion protein” value in test [4] (real-time confocal microscopy on live cells) is reported as “trapped in the ER”. For the same molecule, the “bioluminescence from the media compared to untreated cells” value in test [5] is listed as “reduced”.
For the molecule `C=C1[C@@H](C)[C@H]2[C@H](Cc3ccccc3)NC(=O)[C@]23OC(=O)/C=C/[C@H](O)CCC[C@@H](C)C/C=C/[C@H]3[C@@H]1O` [cytochalasin B], the “decrease of Gluc secretion into the conditioned medium” value in test [3] is listed as roughly 30%.
For `CC[C@@]1([C@@H]2O[C@@H]([C@H]3O[C@@](O)(CO)[C@H](C)C[C@@H]3C)C[C@@H]2C)CC[C@H]([C@]2(C)CC[C@]3(C[C@H](O)[C@@H](C)[C@@H]([C@@H](C)[C@@H](OC)[C@H](C)C(=O)O)O3)O2)O1` [monensin A], the “decrease of Gluc secretion into the conditioned medium” value in test [3] is roughly 65%.
Consider `COC(=O)Nc1nc2ccc(C(=O)c3cccs3)cc2[nH]1` [nocodazole], for which the “decrease of Gluc secretion into the conditioned medium” value in test [3] was roughly 75%. Further, the “secretion of Gluc-YFP luciferase activity” value in test [4] is on record as “blocked to the same extent as for Gluc”. Moreover, the “bioluminescence from the media compared to untreated cells” value in test [5] is reported as “reduced”.
Consider tunicamycin, for which the “increase in spliced XBP-1 message” value in test [1] (tunicamycin 3 μg/ml for 4 h) is 9 fold. The “expression of GRP78” value in test [6] is recorded as “detected”. Besides, the “decrease in Gluc secretion” value in test [2] (tunicamycin 3 μg/ml for 4 h) was “over 90%”.

The values above are taken from patent publication US20100035287A1, “Secreted Luciferase Fluorescent Protein Conjugate Nucleic Acid Construct and Uses Thereof” (THE GENERAL HOSPITAL CORPORATION, priority 2006, published 2010).
